Laboratory results: patent EP4660196A1, “CRYSTAL FORM OF COMPOUND, PREPARATION METHOD THEREFOR AND USE THEREOF” (Felicamed Biotechnology Co., Ltd., priority 2023, dated 2024)
Where two headings read alike, the source gives them in different places.

Legend:
in vivo = experiment: in vivo; design: species or system Sprague-Dawely rats; conditions: rat, po
Description: Sprague-Dawely rats (SPF grade) used in this experiment were purchased from Zhejiang Charles River Experimental Animal Technology Co., Ltd. with the production license No. SCXK (Zhe) 2019-0001 and the animal qualification certificate No. 20220107Aazz0619000738 and 20220107Aazz0619000691. A body weight range of males was 206.6 g to 234.5 g, and a body weight range of females was 188.4 g to 205.9 g.
In this experiment, all animals were randomly divided into 5 groups (5 animals/sex/group), received the drug at 97 mg/kg, 174 mg/kg, 312 mg/kg, 559 mg/kg, and 1000 mg/kg, respectively, and received signal intragastric administration orally. […] All animals received administration according to their latest weighed body weight. The drug was stirred for at least 10 min before administration, and continuously stirred during administration until the administration of the sample at this concentration was completed. […]
All animals underwent a comprehensive physical examination by a veterinarian before administration. […] All surviving animals were weighed once on the day of random grouping (Day-1), Day 1 (before administration), Day 3, Day 5, Day 7, and Day 8; and their 24±1-hour food consumption was measured once on Day 1 (Day 1 to Day 2), Day 2 (Day 2 to Day 3), and Day 6 (Day 6 to Day 7). […]

[1] = Solid-state stability (XRPD, UPLC purity); conditions: for Crystal form Transform: XRPD; for Purity (area%): starting purity 99.82 (hydrochloride), 99.72 (free); for Area (%): UPLC main peak (#Peak 1, RRT 1.00)
[2] = type: physicochemical; conditions: 37°C; for S: solubility: calculated as free form; for FC: crystal transfer: XRPD of solid; for pH: pH of filtrate

SMILES: CC[S@@](=N)(=O)C[C@H]1CC[C@H](N(C)c2ncnc3[nH]ccc23)CC1 [Free crystal form A]
- MTD at 168 h (in vivo): 174 mg/kg
- Crystal form Transform ([1]; 25°C/60% RH/4 weeks, open): No
- Purity (area%) ([1]; 25°C/60% RH/4 weeks, open): 99.71 area%
- Crystal form Transform ([1]; 40°C/75% RH/4 weeks, open): No
- Purity (area%) ([1]; 40°C/75% RH/4 weeks, open): 99.72 area%
- Crystal form Transform ([1]; 80°C/1 d, closed): No
- Area (%) ([1]; 25°C/60% RH/4 weeks): 99.71%
- Area (%) ([1]; 40°C/75% RH/4 weeks): 99.72%
- Area (%) ([1]; 80°C/1 d): 99.71%
- S: solubility ([2]; FaSSIF, 1 h, 60 min): 2200 µg/mL
- S: solubility ([2]; FaSSIF, 2 h, 120 min): 2200 µg/mL
- S: solubility ([2]; FaSSIF, 4 h, 240 min): 2300 µg/mL
- S: solubility ([2]; FaSSIF, 24 h, 1440 min): 2400 µg/mL
- S: solubility ([2]; H2O, 1 h, 60 min): 2100 µg/mL
- S: solubility ([2]; H2O, 2 h, 120 min): 2100 µg/mL
- S: solubility ([2]; H2O, 4 h, 240 min): 2200 µg/mL
- S: solubility ([2]; H2O, 24 h, 1440 min): 2400 µg/mL
- FC: crystal transfer ([2]; FaSSIF, 1 h): No
- FC: crystal transfer ([2]; FaSSIF, 2 h): No
- FC: crystal transfer ([2]; FaSSIF, 4 h): No
- FC: crystal transfer ([2]; FaSSIF, 24 h): No
- FC: crystal transfer ([2]; FeSSIF, 1 h): No
- FC: crystal transfer ([2]; FeSSIF, 2 h): No
- FC: crystal transfer ([2]; FeSSIF, 4 h): No
- FC: crystal transfer ([2]; FeSSIF, 24 h): No
- FC: crystal transfer ([2]; H2O, 1 h): No
- FC: crystal transfer ([2]; H2O, 2 h): No
- FC: crystal transfer ([2]; H2O, 4 h): No
- FC: crystal transfer ([2]; H2O, 24 h): No
- FC: crystal transfer ([2]; SGF, 1 h): No
- FC: crystal transfer ([2]; SGF, 2 h): No
- FC: crystal transfer ([2]; SGF, 4 h): No
- FC: crystal transfer ([2]; SGF, 24 h): No
- pH ([2]; FaSSIF, 1 h): 6.6
- pH ([2]; FaSSIF, 2 h): 6.6
- pH ([2]; FaSSIF, 4 h): 6.6
- pH ([2]; FaSSIF, 24 h): 6.6
- pH ([2]; FeSSIF, 1 h): 5.3
- pH ([2]; FeSSIF, 2 h): 5.3
- pH ([2]; FeSSIF, 4 h): 5.3
- pH ([2]; FeSSIF, 24 h): 5.3
- pH ([2]; H2O, 1 h): 6.7
- pH ([2]; H2O, 2 h): 6.6
- pH ([2]; H2O, 4 h): 6.7
- pH ([2]; H2O, 24 h): 7.3
- pH ([2]; SGF, 1 h): 5.1
- pH ([2]; SGF, 2 h): 5.2
- pH ([2]; SGF, 4 h): 5.2
- pH ([2]; SGF, 24 h): 5.2
